Consider 38 compounds from a polymer gas permeability compilation.

As to `*=CC1CCC(C=*)C1` (repeat unit), the CH4 permeability was 2.5 Barrer, the CO2 permeability was 15.4 Barrer, the H2 permeability came out at 21 Barrer and the N2 permeability stood at 1.5 Barrer. For the same compound, the O2 permeability is 2.8 Barrer.
In the same order, the values of `*C(=C(*)c1ccc(-c2ccccc2)cc1)c1ccccc1` (repeat unit) are 170 Barrer, 1300 Barrer, 440 Barrer, 65 Barrer and 180 Barrer.
For `*C(=C(*)c1ccc(C(C)(C)C)cc1)c1ccc(O)cc1` (repeat unit) the same measures were 46 Barrer, 530 Barrer, 340 Barrer, 23 Barrer and 82 Barrer.
Regarding `*CCCC*` (repeat unit), the CH4 permeability amounted to 13 Barrer, the CO2 permeability is 48.4 Barrer, the N2 permeability is 4 Barrer and the O2 permeability was 11.3 Barrer.
Compound `*CCCCO*` (repeat unit) returned a CH4 permeability of 22.5 Barrer, a CO2 permeability of 170 Barrer, an H2 permeability of 36 Barrer and an N2 permeability of 8.85 Barrer. The compound further had an O2 permeability of 21.5 Barrer.
The compound `*CCC[Si](*)(C)C` (repeat unit) showed a CH4 permeability of 8.4 Barrer, an N2 permeability of 3 Barrer and an O2 permeability of 9.5 Barrer.
In the case of `*CCOC(=O)c1ccc(C(=O)O*)cc1` (repeat unit), the CH4 permeability was 3 Barrer, the CO2 permeability was 0.173 Barrer, the N2 permeability was determined as 0.013 Barrer and the O2 permeability turned out to be 0.045 Barrer.
For `*CC[Si](C)(C)c1ccc([Si](*)(C)C)cc1` (repeat unit) the same measures were 0.53 Barrer, 4.01 Barrer, 0.257 Barrer and 1.11 Barrer.
`*CN1CN(*)c2cc3c(cc21)C1(C(C)C)c2ccccc2C3(C(C)C)c2cc(*)c(*)cc21` (repeat unit): the CH4 permeability worked out at 215 Barrer, the H2 permeability came to 4740 Barrer, the N2 permeability came to 188 Barrer and the O2 permeability was found to be 1070 Barrer.
Consider `*N=P(*)(C)c1ccccc1` (repeat unit), for which the CH4 permeability is 0.7 Barrer, the CO2 permeability worked out at 6.5 Barrer, the N2 permeability was 0.6 Barrer and the O2 permeability is 1.8 Barrer.
For `*NC(=O)c1ccc(C(c2ccc(C(=O)O)c(C(=O)Nc3cc(Oc4ccc(*)c(N)c4)ccc3N)c2)(C(F)(F)F)C(F)(F)F)cc1C(=O)O` (repeat unit) the same measures were 0.087 Barrer, 3.69 Barrer, 0.17 Barrer and 0.97 Barrer.
In the same order, the values of `*NCC(C)(C)CC(C)CCNC(=O)c1ccc(C(*)=O)cc1` (repeat unit) are 0.018 Barrer, 0.33 Barrer, 0.016 Barrer and 0.092 Barrer.
In the same order, the values of `*Nc1c(C)cc(C(C)(C)c2cc(C)c(NC(=O)c3ccc(Oc4cc(C(C)(C)C)c(Oc5ccc(C(*)=O)cc5)cc4C(C)(C)C)cc3)c(C)c2)cc1C` (repeat unit) are 2.24 Barrer, 43 Barrer, 1.73 Barrer and 9.38 Barrer.
In turn, `*Nc1ccc(C(c2ccc(NC(=O)c3ccc(Oc4cc(C(C)(C)C)c(Oc5ccc(C(*)=O)cc5)cc4C(C)(C)C)cc3)cc2)(C(F)(F)F)C(F)(F)F)cc1` (repeat unit) registered a CH4 permeability of 1.24 Barrer, a CO2 permeability of 36 Barrer, an N2 permeability of 1.51 Barrer and an O2 permeability of 7.88 Barrer.
The compound `*Nc1ccc(C(c2ccc(NC(=O)c3cccc(C(*)=O)c3)cc2)(C(F)(F)F)C(F)(F)F)cc1` (repeat unit) gave a CH4 permeability of 0.2 Barrer, a CO2 permeability of 9 Barrer, an H2 permeability of 29 Barrer and an N2 permeability of 0.42 Barrer. Further, the O2 permeability is 2.4 Barrer.
Compound `*Nc1ccc(Oc2c(F)c(F)c(Oc3ccc(NC(=O)CN4C(=O)c5ccc(C(*)=O)cc5C4=O)cc3)c(F)c2F)cc1` (repeat unit) came in with a CH4 permeability of 0.013 Barrer, a CO2 permeability of 1.27 Barrer, an N2 permeability of 0.071 Barrer and an O2 permeability of 0.284 Barrer.
The compound `*Nc1ccc(S(=O)(=O)c2ccc(NC(=O)c3cccc(C(*)=O)c3)cc2)cc1` (repeat unit) yielded a CH4 permeability of 0.014 Barrer, a CO2 permeability of 0.78 Barrer, an H2 permeability of 4.3 Barrer and an N2 permeability of 0.031 Barrer. Also, the O2 permeability was determined as 0.19 Barrer.
`*Nc1cccc(NC(=O)c2ccc(C(c3ccc(C(*)=O)cc3)(C(F)(F)F)C(F)(F)F)cc2)c1` (repeat unit) yielded a CH4 permeability of 0.24 Barrer, a CO2 permeability of 8.4 Barrer, an H2 permeability of 23 Barrer and an N2 permeability of 0.4 Barrer. The compound further displayed an O2 permeability of 2.2 Barrer.
On to `*OC(=O)Oc1c(C)cc(C(C)(C)c2cc(C)c(*)c(C)c2)cc1C` (repeat unit), for which the CH4 permeability worked out at 0.955 Barrer, the CO2 permeability is 19.6 Barrer, the N2 permeability was determined as 1.07 Barrer and the O2 permeability stood at 5.54 Barrer.
For `*OC(=O)Oc1ccc(C(=C(Cl)Cl)c2ccc(*)cc2)cc1` (repeat unit), the CH4 permeability worked out at 0.27 Barrer, the CO2 permeability amounted to 6.5 Barrer, the H2 permeability is 11.3 Barrer and the N2 permeability is 0.26 Barrer. This compound returned an O2 permeability of 1.4 Barrer.
`*OC(=O)Oc1ccc(C2(c3ccc(*)cc3)CC3CCC2C3)cc1` (repeat unit) returned a CH4 permeability of 0.48 Barrer, a CO2 permeability of 9.1 Barrer, an H2 permeability of 22 Barrer and an N2 permeability of 0.47 Barrer. Moreover, the O2 permeability worked out at 2.4 Barrer.
In the same order, the values of `*OC(=O)Oc1ccc(C2(c3ccc(*)cc3)CCCCC2)cc1` (repeat unit) are 0.092 Barrer, 2.2 Barrer, 9.1 Barrer, 0.105 Barrer and 0.6 Barrer.
On to `*OC(=O)Oc1ccc(C2(c3ccc(*)cc3)c3ccccc3-c3ccccc32)cc1` (repeat unit), for which the CH4 permeability turned out to be 0.581 Barrer, the CO2 permeability is 15.1 Barrer, the N2 permeability was 0.592 Barrer and the O2 permeability turned out to be 3.18 Barrer.
For `*OC(=O)c1ccc(C(=O)Oc2c(C)cc(C(C)(C)c3cc(C)c(O*)c(C)c3)cc2C)cc1` (repeat unit) the same measures were 1.32 Barrer, 4.7 Barrer, 1.43 Barrer and 7.3 Barrer.
As to `*OC(=O)c1ccc(C(=O)Oc2ccc(C(C)(C)c3ccc(O*)c(C)c3)cc2C)cc1` (repeat unit), the CH4 permeability was 0.17 Barrer, the CO2 permeability came to 5.8 Barrer, the N2 permeability was determined as 0.23 Barrer and the O2 permeability was found to be 1.12 Barrer.
In the same order, the values of `*OC(=O)c1ccc(C(=O)Oc2ccc(C3(c4ccc(O*)c(C)c4)OC(=O)c4ccccc43)cc2C)cc1` (repeat unit) are 0.18 Barrer, 5 Barrer, 0.15 Barrer and 1.04 Barrer.
The compound `*OC(=O)c1ccc(C(=O)Oc2ccc(C3(c4ccc(O*)cc4)OC(=O)c4ccccc43)cc2)cc1` (repeat unit) registered a CH4 permeability of 0.47 Barrer, a CO2 permeability of 11.7 Barrer, an N2 permeability of 0.41 Barrer and an O2 permeability of 2.15 Barrer.
`*OC1OC(COC(=O)NC(C)(C)C)C(*)C(OCC)C1OCC` (repeat unit): the CH4 permeability is 9.45 Barrer, the CO2 permeability turned out to be 94.5 Barrer, the H2 permeability is 73 Barrer and the N2 permeability came to 4.3 Barrer. The O2 permeability stood at 16 Barrer.
In the same order, the values of `*OC1OC(OC(C)=O)C(*)C(O)C1OC(C)=O` (repeat unit) are 0.15 Barrer, 3.5 Barrer, 12 Barrer, 0.14 Barrer and 0.735 Barrer.
`*OC1OC(OC(C)=O)C(*)C(OC(C)=O)C1OC(C)=O` (repeat unit) showed a CH4 permeability of 0.2 Barrer, a CO2 permeability of 6.56 Barrer, an H2 permeability of 15.5 Barrer and an N2 permeability of 0.23 Barrer. This compound yielded an O2 permeability of 1.46 Barrer.
For `*O[Si](*)(C)C` (repeat unit) the same measures were 1350 Barrer, 4180 Barrer, 890 Barrer, 351 Barrer and 800 Barrer.
Compound `*O[Si](*)(C)CC` (repeat unit) yielded a CH4 permeability of 474 Barrer, a CO2 permeability of 1510 Barrer, an N2 permeability of 160 Barrer and an O2 permeability of 332 Barrer.
For `*O[Si](*)(C)CCC` (repeat unit) the same measures were 570 Barrer, 2300 Barrer, 182 Barrer and 394 Barrer.
In the same order, the values of `*O[Si](*)(C)CCCCCCCC` (repeat unit) are 313 Barrer, 932 Barrer, 88.3 Barrer and 196 Barrer.
In the same order, the values of `*O[Si](*)(C)c1ccccc1` (repeat unit) are 36 Barrer, 239 Barrer, 8.59 Barrer and 28.8 Barrer.
In the case of `*O[Si](C)(C)CC[Si](*)(C)C` (repeat unit), the CH4 permeability turned out to be 597 Barrer, the CO2 permeability was found to be 1880 Barrer and the O2 permeability worked out at 394 Barrer.
For `*O[Si](C)(C)c1ccc([Si](*)(C)C)cc1` (repeat unit) the same measures were 12 Barrer, 65 Barrer and 11 Barrer.
For `*O[Si](C)(C)c1cccc([Si](*)(C)C)c1` (repeat unit) the same measures were 106 Barrer, 518 Barrer and 74 Barrer.
